Measurements as given in PubChem BioAssay AID248 (DTP/NCI, 2004).
Toxic doses and inconclusive results are not listed. No stated cut-off is given here; in the data, active means T/C of 150% or more; inactive means T/C below 125%.

Test system: L1210 leukemia ip in BDF1 mice, survival T/C
Assay: NCI In Vivo Anticancer Drug Screen. Data for tumor model L1210 Leukemia (intraperitoneal) in B6D2F1 (BDF1) mice
Conditions: endpoint: mean survival time, higher = longer survival
Outline: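 Mice bearing the transplanted tumor received compound or vehicle. Survival of the treated group was divided by that of the vehicle-treated control group to give the ratio.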

[1] = dose: 100.0 mg/kg/injection, schedule: Q01DX001 (ip), vehicle: saline
[2] = dose: 12.5 mg/kg/injection, schedule: Q01DX009 (ip), vehicle: Klucel (hydroxypropylcellulose) (HPC)
[3] = dose: 25.0 mg/kg/injection, schedule: Q01DX009 (ip), vehicle: Klucel (hydroxypropylcellulose) (HPC)
[4] = dose: 100.0 mg/kg/injection, schedule: Q01DX001 (ip), vehicle: other
[5] = dose: 100.0 mg/kg/injection, schedule: Q01DX009 (ip), vehicle: saline with Tween-80
[6] = dose: 200.0 mg/kg/injection, schedule: Q01DX009 (ip), vehicle: saline with Tween-80
[7] = dose: 400.0 mg/kg/injection, schedule: Q01DX009 (ip), vehicle: saline with Tween-80
[8] = dose: 100.0 mg/kg/injection, schedule: Q01DX001 (ip), vehicle: carboxymethylcellulose (CMC)
[9] = dose: 200.0 mg/kg/injection, schedule: Q01DX001 (ip), vehicle: carboxymethylcellulose (CMC)
[10] = dose: 400.0 mg/kg/injection, schedule: Q01DX001 (ip), vehicle: carboxymethylcellulose (CMC)

Measured: T/C

O=c1[nH]c(=S)[nH]cc1CN(CCO)CCO
inactive: dose: 50.0 mg/kg/injection, schedule: Q01DX001 (ip), vehicle: saline 97 % of control | [1] 90 % of control | dose: 200.0 mg/kg/injection, schedule: Q01DX001 (ip), vehicle: saline 95 % of control

CCN1CCC(CCOC)(CN2c3ccccc3Sc3ccc(Cl)cc32)C1 (stereo not given)
inactive: dose: 100.0 mg/kg/injection, schedule: Q04DX003 (ip), vehicle: saline 89 % of control

Clc1ccc(N=CC2CCC=CO2)cc1 (stereo not given)
inactive: dose: 222.0 mg/kg/injection, schedule: Q01DX Z (ip), vehicle: saline 92 % of control | dose: 333.0 mg/kg/injection, schedule: Q01DX Z (ip), vehicle: saline 95 % of control | dose: 500.0 mg/kg/injection, schedule: Q01DX Z (ip), vehicle: saline 92 % of control

C=C1C(=O)OC2/C=C(\C)CC/C=C(/C=O)C(OC)C(OC(=O)C(C)C)C12 (stereo not given)
inactive: dose: 6.25 mg/kg/injection, schedule: Q01DX009 (ip), vehicle: Klucel (hydroxypropylcellulose) (HPC) 95 % of control | [2] 100 % of control | [3] 101 % of control

CN(C(=O)OCc1ccccc1)C(Cc1ccccc1)C(=O)O (stereo not given)
inactive: [4] 95 % of control | dose: 200.0 mg/kg/injection, schedule: Q01DX001 (ip), vehicle: other 96 % of control

CCCCCCC(C)OC(=O)c1ccccc1C(=O)OC(C)CCCCCC (stereo not given)
inactive: dose: 100.0 mg/kg/injection, schedule: Q04DX002 (ip), vehicle: saline 102 % of control | dose: 200.0 mg/kg/injection, schedule: Q04DX002 (ip), vehicle: saline 95 % of control | dose: 400.0 mg/kg/injection, schedule: Q04DX002 (ip), vehicle: saline 102 % of control

NC(=O)c1cc(N2CC2)c([N+](=O)[O-])cc1[N+](=O)[O-]
inactive: dose: 5.0 mg/kg/injection, schedule: Q01DX001 (ip), vehicle: other 110 % of control | dose: 10.0 mg/kg/injection, schedule: Q01DX001 (ip), vehicle: other 98 % of control | dose: 10.0 mg/kg/injection, schedule: Q01DX009 (ip), vehicle: saline 105 % of control | dose: 20.0 mg/kg/injection, schedule: Q01DX001 (ip), vehicle: other 101 % of control | dose: 20.0 mg/kg/injection, schedule: Q01DX009 (ip), vehicle: saline 105 % of control | dose: 40.0 mg/kg/injection, schedule: Q01DX001 (ip), vehicle: other 106 % of control | dose: 40.0 mg/kg/injection, schedule: Q01DX009 (ip), vehicle: saline 113 % of control | dose: 50.0 mg/kg/injection, schedule: Q01DX001 (ip), vehicle: other 94 % of control | dose: 80.0 mg/kg/injection, schedule: Q01DX001 (ip), vehicle: other 97 % of control | [4] 96 % of control

CCOC(=O)c1ccc2ccccc2c1
inactive: [5] 94 % of control | [6] 97 % of control | [7] 89 % of control

O=C(CCc1ccc(O)cc1)N/N=C/c1ccc2c(c1)OCO2
inactive: [6] 97 % of control | [7] 87 % of control

O=C(Nc1ccc(Br)cc1)c1cc(Br)ccc1O
inactive: dose: 50.0 mg/kg/injection, schedule: Q01DX001 (ip), vehicle: carboxymethylcellulose (CMC) 98 % of control | [8] 102 % of control | dose: 100.0 mg/kg/injection, schedule: Q04DX002 (ip), vehicle: Klucel (hydroxypropylcellulose) (HPC) 103 % of control | [9] 89 % of control | dose: 200.0 mg/kg/injection, schedule: Q04DX002 (ip), vehicle: Klucel (hydroxypropylcellulose) (HPC) 92 % of control | [10] 94 % of control | dose: 400.0 mg/kg/injection, schedule: Q04DX002 (ip), vehicle: Klucel (hydroxypropylcellulose) (HPC) 95 % of control

CCCCC(=O)NS(=O)(=O)c1ccccc1
inactive: [5] 92 % of control | dose: 100.0 mg/kg/injection, schedule: Q04DX003 (ip), vehicle: saline with Tween-80 94 % of control | [6] 105 % of control | dose: 200.0 mg/kg/injection, schedule: Q04DX003 (ip), vehicle: saline with Tween-80 101 % of control | [7] 107 % of control | dose: 400.0 mg/kg/injection, schedule: Q04DX003 (ip), vehicle: saline with Tween-80 94 % of control

CC(C)(C)C(=O)/C=C/c1ccc(Cl)cc1
inactive: dose: 100.0 mg/kg/injection, schedule: Q04DX002 (ip), vehicle: gum acacia 93 % of control | dose: 200.0 mg/kg/injection, schedule: Q04DX002 (ip), vehicle: gum acacia 97 % of control | dose: 400.0 mg/kg/injection, schedule: Q04DX002 (ip), vehicle: gum acacia 104 % of control

CN1CCCC(OC(=O)c2cc3ccccc3s2)C1 (stereo not given)
inactive: [8] 101 % of control | [9] 106 % of control | [10] 98 % of control

CC1(C)OC(=O)CC1c1ccccc1 (stereo not given)
inactive: dose: 5.0 mg/kg/injection, schedule: Q01DX001 (ip), vehicle: saline 108 % of control | dose: 10.0 mg/kg/injection, schedule: Q01DX001 (ip), vehicle: saline 101 % of control | dose: 20.0 mg/kg/injection, schedule: Q01DX001 (ip), vehicle: saline 86 % of control | dose: 40.0 mg/kg/injection, schedule: Q01DX001 (ip), vehicle: saline 97 % of control | dose: 80.0 mg/kg/injection, schedule: Q01DX001 (ip), vehicle: saline 101 % of control | [1] 102 % of control | dose: 400.0 mg/kg/injection, schedule: Q01DX001 (ip), vehicle: saline 95 % of control

CN1C(=O)C(C)(C)C(=O)c2ccccc21
inactive: dose: 100.0 mg/kg/injection, schedule: Q04DX002 (ip), vehicle: other 90 % of control | dose: 200.0 mg/kg/injection, schedule: Q04DX002 (ip), vehicle: other 100 % of control | dose: 400.0 mg/kg/injection, schedule: Q04DX002 (ip), vehicle: other 97 % of control

O=C(CNC(=O)c1ccc(Cl)cc1Cl)N/N=C/c1cccc([N+](=O)[O-])c1
inactive: dose: 12.5 mg/kg/injection, schedule: Q01DX009 (ip), vehicle: saline with Tween-80 96 % of control | dose: 50.0 mg/kg/injection, schedule: Q01DX009 (ip), vehicle: saline with Tween-80 89 % of control

CC[CH2][Pb]([CH2]CC)([CH2]CC)[O]C(=O)C(F)(F)F
inactive: dose: 12.5 mg/kg/injection, schedule: Q04DX002 (ip), vehicle: Klucel (hydroxypropylcellulose) (HPC) 107 % of control | dose: 25.0 mg/kg/injection, schedule: Q04DX002 (ip), vehicle: Klucel (hydroxypropylcellulose) (HPC) 95 % of control

CCc1ccc(/C(C#N)=C/c2ccc(N(C)CCC#N)cc2)cc1
inactive: [2] 95 % of control | [3] 95 % of control | dose: 50.0 mg/kg/injection, schedule: Q01DX009 (ip), vehicle: Klucel (hydroxypropylcellulose) (HPC) 94 % of control

CCCCNC(C)C1(O)Cc2c(O)c3c(c(O)c2C(OC2CC(N)C(O)C(C)O2)C1)C(=O)c1c(OC)cccc1C3=O (stereo not given)
inactive: dose: 5.0 mg/kg/injection, schedule: Q01DX009 (ip), vehicle: water 100 % of control | dose: 10.0 mg/kg/injection, schedule: Q01DX009 (ip), vehicle: water 100 % of control | dose: 20.0 mg/kg/injection, schedule: Q01DX009 (ip), vehicle: water 92 % of control | dose: 80.0 mg/kg/injection, schedule: Q01DX009 (ip), vehicle: water 104 % of control
